Experimental data as given in ChEMBL document CHEMBL1157046, “QSAR modeling of taxane analogues against colon cancer” (Eur J Med Chem, 2010).

What follows are compounds tested on HT-29 (assay: Cytotoxicity against human HT-29 cells). Conditions: not given.
Assay type: functional, cell-based
`C/C=C/C(=O)O[C@H]1C(=O)[C@@]2(C)[C@H]([C@H](OC(=O)c3ccccc3)[C@]34OC(=O)O[C@H]3[C@H](OC(=O)[C@H](O)[C@H](C=C(C)C)NC(=O)CCCCC)C(C)=C1C4(C)C)[C@]1(OC(C)=O)CO[C@@H]1C[C@@H]2O` was tested, and the IC50 was 28.2 nM.
`CC(=O)O[C@@]12CO[C@@H]1C[C@H](O)[C@@]1(C)C(=O)[C@H](OC(=O)C3CC3)C3=C(C)[C@@H](OC(=O)[C@H](O)[C@H](C=C(C)C)NC(=O)C(C)(C)C)[C@@H]4OC(=O)O[C@]4([C@@H](OC(=O)c4ccccc4)[C@H]21)C3(C)C` gave an IC50 of 1 nM.
`CC(=O)O[C@@H]1C2=C(C)[C@@H](OC(=O)[C@H](O)[C@@H](NC(=O)NC(C)(C)C)c3ccccc3)C[C@@](O)([C@@H](OC(=O)c3ccccc3)[C@@H]3[C@]4(OC(C)=O)CO[C@@H]4C[C@H](O)[C@@]3(C)[C@H]1O)C2(C)C` showed an IC50 of 0.00661 nM.
For `C/C=C/[C@H](NC(=O)C(C)(C)C)[C@@H](O)C(=O)O[C@@H]1C(C)=C2[C@@H](OC(C)=O)C(=O)[C@@]3(C)[C@H]([C@H](OC(=O)c4ccccc4)[C@@]4(OC(=O)O[C@@H]14)C2(C)C)[C@]1(OC(C)=O)CO[C@@H]1C[C@@H]3O`, the IC50 was 3.02 nM.
With `CC(=O)O[C@@]12CO[C@@H]1C[C@H](O)[C@@]1(C)C(=O)[C@H](O)C3=C(C)[C@@H](OC(=O)[C@H](O)[C@@H](NC(=O)C(C)(C)C)c4ccco4)[C@@H]4OC(=O)O[C@]4([C@@H](OC(=O)c4ccccc4)[C@H]21)C3(C)C` the IC50 was 0.603 nM.
`C/C=C/C(=O)O[C@H]1C(=O)[C@@]2(C)[C@H]([C@H](OC(=O)c3ccccc3)[C@]34OC(=O)O[C@H]3[C@H](OC(=O)[C@H](O)[C@H](C=C(C)C)NC(=O)C(C)(C)C)C(C)=C1C4(C)C)[C@]1(OC(C)=O)CO[C@@H]1C[C@@H]2O` was tested, and the IC50 was 1.51 nM.
`CCC(=O)O[C@H]1C(=O)[C@@]2(C)[C@H]([C@H](OC(=O)c3cccc(N=[N+]=[N-])c3)[C@]3(O)C[C@H](OC(=O)[C@H](O)[C@@H](CC(=O)OC(C)(C)C)C(F)(F)F)C(C)=C1C3(C)C)[C@]1(OC(C)=O)CO[C@@H]1C[C@@H]2O` gave an IC50 of 0.398 nM.
`CC(=O)N[C@@H](c1ccccc1)[C@@H](O)C(=O)O[C@H]1C[C@@]2(O)[C@@H](OC(=O)c3ccccc3)[C@@H]3[C@]4(OC(C)=O)CO[C@@H]4C[C@H](O)[C@@]3(C)[C@@H](O)[C@H](OC(C)=O)C(=C1C)C2(C)C` gave an IC50 of 0.339 nM.
`CC(=O)O[C@@]12CO[C@@H]1C[C@H](O)[C@@]1(C)C(=O)[C@H](O)C3=C(C)[C@@H](OC(=O)[C@H](O)[C@H](C=C(C)C)NC(=O)C(C)(C)C)[C@@H]4OC(=O)O[C@]4([C@@H](OC(=O)c4ccccc4)[C@H]21)C3(C)C` was tested, and the IC50 was 0.501 nM.
Work on `CC(=O)O[C@@H]1C2=C(C)[C@@H](OC(=O)[C@H](O)[C@@H](NC(=O)c3ccc(C)cc3)c3ccccc3)C[C@@](O)([C@@H](OC(=O)c3ccccc3)[C@@H]3[C@]4(OC(C)=O)CO[C@@H]4C[C@H](O)[C@@]3(C)[C@H]1O)C2(C)C` yielded an IC50 of 0.0138 nM.
With `CCOC(=O)N[C@@H](c1ccccc1)[C@@H](O)C(=O)O[C@H]1C[C@@]2(O)[C@@H](OC(=O)c3ccccc3)[C@@H]3[C@]4(OC(C)=O)CO[C@@H]4C[C@H](O)[C@@]3(C)[C@@H](O)[C@H](OC(C)=O)C(=C1C)C2(C)C` the IC50 was 0.00603 nM.
`CC(=O)O[C@@H]1C2=C(C)[C@@H](OC(=O)[C@H](O)[C@@H](NC(=O)OC(C)(C)C)c3ccccc3)C[C@@](O)([C@@H](OC(=O)c3ccccc3)[C@@H]3[C@]4(OC(C)=O)CO[C@@H]4C[C@H](O)[C@@]3(C)[C@H]1O)C2(C)C` showed an IC50 of 0.000186 nM.
In the case of `CC(=O)O[C@@H]1C2=C(C)[C@@H](OC(=O)[C@H](O)[C@@H](NC(=O)OC(C)C)c3ccccc3)C[C@@](O)([C@@H](OC(=O)c3ccccc3)[C@@H]3[C@]4(OC(C)=O)CO[C@@H]4C[C@H](O)[C@@]3(C)[C@H]1O)C2(C)C`, the IC50 is reported as 0.000955 nM.
For `CCC[C@H](NC(=O)C(C)(C)C)[C@@H](O)C(=O)O[C@@H]1C(C)=C2[C@@H](OC(C)=O)C(=O)[C@@]3(C)[C@H]([C@H](OC(=O)c4ccccc4)[C@@]4(OC(=O)O[C@@H]14)C2(C)C)[C@]1(OC(C)=O)CO[C@@H]1C[C@@H]3O`, the IC50 was 4.79 nM.
Work on `CC(=O)O[C@@H]1C2=C(C)[C@@H](OC(=O)[C@H](O)[C@@H](NC(=O)OCC(C)C)c3ccccc3)C[C@@](O)([C@@H](OC(=O)c3ccccc3)[C@@H]3[C@]4(OC(C)=O)CO[C@@H]4C[C@H](O)[C@@]3(C)[C@H]1O)C2(C)C` yielded an IC50 of 0.00269 nM.
Compound `CC(=O)O[C@H]1C(=O)[C@@]2(C)[C@H]([C@H](OC(=O)c3ccccc3)[C@]34OC(=O)O[C@H]3[C@H](OC(=O)[C@H](O)[C@H](C=C(C)C)NC(=O)C(C)(C)C)C(C)=C1C4(C)C)[C@]1(OC(C)=O)CO[C@@H]1C[C@@H]2O` has an IC50 of 2.4 nM.
Work on `C/C=C/[C@H](NC(=O)C(C)(C)C)[C@@H](O)C(=O)O[C@@H]1C(C)=C2[C@@H](O)C(=O)[C@@]3(C)[C@H]([C@H](OC(=O)c4ccccc4)[C@@]4(OC(=O)O[C@@H]14)C2(C)C)[C@]1(OC(C)=O)CO[C@@H]1C[C@@H]3O` yielded an IC50 of 1.91 nM.
For `CC(=O)O[C@@]12CO[C@@H]1C[C@H](O)[C@@]1(C)C(=O)[C@H](O)C3=C(C)[C@@H](OC(=O)[C@H](O)[C@@H](NC(=O)OC(C)(C)C)C(F)(F)F)C[C@@](O)([C@@H](OC(=O)c4cccc(N=[N+]=[N-])c4)[C@H]21)C3(C)C`, the IC50 was 0.708 nM.
In the case of `CC(=O)O[C@H]1C(=O)[C@@]2(C)[C@H]([C@H](OC(=O)c3ccccc3)[C@]34OC(=O)O[C@H]3[C@H](OC(=O)[C@H](O)[C@@H](NC(=O)C(C)(C)C)c3ccco3)C(C)=C1C4(C)C)[C@]1(OC(C)=O)CO[C@@H]1C[C@@H]2O`, the IC50 is reported as 0.603 nM.
For `CC(=O)O[C@@H]1C2=C(C)[C@@H](OC(=O)[C@H](O)[C@@H](NC(=O)CC(C)(C)C)c3ccccc3)C[C@@](O)([C@@H](OC(=O)c3ccccc3)[C@@H]3[C@]4(OC(C)=O)CO[C@@H]4C[C@H](O)[C@@]3(C)[C@H]1O)C2(C)C`, the IC50 was 0.0105 nM.
In the case of `COC(=O)O[C@H]1C(=O)[C@@]2(C)[C@H]([C@H](OC(=O)c3ccccc3)[C@]34OC(=O)O[C@H]3[C@H](OC(=O)[C@H](O)[C@H](C=C(C)C)NC(=O)C(C)(C)C)C(C)=C1C4(C)C)[C@]1(OC(C)=O)CO[C@@H]1C[C@@H]2O`, the IC50 is reported as 0.708 nM.
In the case of `CC(=O)O[C@@]12CO[C@@H]1C[C@H](O)[C@@]1(C)C(=O)[C@H](OC(=O)N(C)C)C3=C(C)[C@@H](OC(=O)[C@H](O)[C@H](C=C(C)C)NC(=O)C(C)(C)C)[C@@H]4OC(=O)O[C@]4([C@@H](OC(=O)c4ccccc4)[C@H]21)C3(C)C`, the IC50 is reported as 1.2 nM.
`CC(=O)O[C@@H]1C2=C(C)[C@@H](OC(=O)[C@H](O)[C@@H](NC(=O)OCc3ccccc3)c3ccccc3)C[C@@](O)([C@@H](OC(=O)c3ccccc3)[C@@H]3[C@]4(OC(C)=O)CO[C@@H]4C[C@H](O)[C@@]3(C)[C@H]1O)C2(C)C` was tested, and the IC50 was 0.0135 nM.
With `CC(=O)O[C@@]12CO[C@@H]1C[C@H](O)[C@@]1(C)C(=O)[C@H](O)C3=C(C)[C@@H](OC(=O)[C@H](O)[C@H](CC(C)C)NC(=O)C(C)(C)C)[C@@H]4OC(=O)O[C@]4([C@@H](OC(=O)c4ccccc4)[C@H]21)C3(C)C` the IC50 was 4.17 nM.
In the case of `CCC(C)(C)OC(=O)N[C@@H](c1ccccc1)[C@@H](O)C(=O)O[C@H]1C[C@@]2(O)[C@@H](OC(=O)c3ccccc3)[C@@H]3[C@]4(OC(C)=O)CO[C@@H]4C[C@H](O)[C@@]3(C)[C@@H](O)[C@H](OC(C)=O)C(=C1C)C2(C)C`, the IC50 is reported as 0.000776 nM.
With `CCCCCC(=O)N[C@@H](C=C(C)C)[C@@H](O)C(=O)O[C@@H]1C(C)=C2[C@@H](OC(=O)N(C)C)C(=O)[C@@]3(C)[C@H]([C@H](OC(=O)c4ccccc4)[C@@]4(OC(=O)O[C@@H]14)C2(C)C)[C@]1(OC(C)=O)CO[C@@H]1C[C@@H]3O` the IC50 was 5.13 nM.
In the case of `CCC[C@H](NC(=O)C(C)(C)C)[C@@H](O)C(=O)O[C@@H]1C(C)=C2[C@@H](O)C(=O)[C@@]3(C)[C@H]([C@H](OC(=O)c4ccccc4)[C@@]4(OC(=O)O[C@@H]14)C2(C)C)[C@]1(OC(C)=O)CO[C@@H]1C[C@@H]3O`, the IC50 is reported as 3.8 nM.
Compound `CCC(=O)O[C@H]1C(=O)[C@@]2(C)[C@H]([C@H](OC(=O)c3ccccc3)[C@]34OC(=O)O[C@H]3[C@H](OC(=O)[C@H](O)[C@H](C=C(C)C)NC(=O)C(C)(C)C)C(C)=C1C4(C)C)[C@]1(OC(C)=O)CO[C@@H]1C[C@@H]2O` has an IC50 of 0.603 nM.
`CCCCCC(=O)N[C@@H](C=C(C)C)[C@@H](O)C(=O)O[C@@H]1C(C)=C2[C@@H](OC(=O)C3CC3)C(=O)[C@@]3(C)[C@H]([C@H](OC(=O)c4ccccc4)[C@@]4(OC(=O)O[C@@H]14)C2(C)C)[C@]1(OC(C)=O)CO[C@@H]1C[C@@H]3O` showed an IC50 of 15.8 nM.
`CC(=O)O[C@@H]1C2=C(C)[C@@H](OC(=O)[C@H](O)[C@@H](NC(=O)OCC(C)(C)C)c3ccccc3)C[C@@](O)([C@@H](OC(=O)c3ccccc3)[C@@H]3[C@]4(OC(C)=O)CO[C@@H]4C[C@H](O)[C@@]3(C)[C@H]1O)C2(C)C` showed an IC50 of 0.00174 nM.
`CC(=O)O[C@H]1C(=O)[C@@]2(C)[C@H]([C@H](OC(=O)c3ccccc3)[C@]34OC(=O)O[C@H]3[C@H](OC(=O)[C@H](O)[C@H](CC(C)C)NC(=O)C(C)(C)C)C(C)=C1C4(C)C)[C@]1(OC(C)=O)CO[C@@H]1C[C@@H]2O` was tested, and the IC50 was 1.51 nM.

The compounds below were run on HCT-116 (assay: Cytotoxicity against human HCT116 cells after 72 hrs). Conditions: HCT-116, 72 h.
Assay type: functional, cell-based
`CC(=O)O[C@H]1C(=O)[C@@]2(C)[C@H]([C@H](OC(=O)c3ccccc3)[C@]3(O)C[C@H](OC(=O)[C@H](O)[C@@H](NC(=O)c4ccccc4)c4ccccc4)C(C)=C1C3(C)C)[C@]1(OC(=O)n3ccnc3)CO[C@@H]1C[C@@H]2O` was tested, and the IC50 was 794 nM.
Work on `CC(=O)O[C@H]1C(=O)[C@@]2(C)[C@H]([C@H](OC(=O)c3ccccc3)[C@]3(O)C[C@H](OC(=O)[C@H](O)[C@@H](NC(=O)c4ccccc4)c4ccccc4)C(C)=C1C3(C)C)[C@]1(OC(=O)C3CC3)CO[C@@H]1C[C@@H]2O` yielded an IC50 of 1 nM.
`CCCCC(=O)O[C@@]12CO[C@@H]1C[C@H](O)[C@@]1(C)C(=O)[C@H](OC(C)=O)C3=C(C)[C@@H](OC(=O)[C@H](O)[C@@H](NC(=O)c4ccccc4)c4ccccc4)C[C@@](O)([C@@H](OC(=O)c4ccccc4)[C@H]21)C3(C)C` was tested, and the IC50 was 2 nM.
`CC(=O)O[C@H]1C(=O)[C@@]2(C)[C@H]([C@H](OC(=O)c3ccccc3)[C@]3(O)C[C@H](OC(=O)[C@H](O)[C@@H](NC(=O)c4ccccc4)c4ccccc4)C(C)=C1C3(C)C)[C@]1(OC(=O)c3ccc(F)cc3)CO[C@@H]1C[C@@H]2O` showed an IC50 of 794 nM.
